Values belong to the molecule of their own block, whether it stands above or below them. Calls of active or inactive are those of the source. No cut-off for these calls is given here. Non-standard residues stand in square brackets, D forms with d. Residues, ends and D or L forms follow the SMILES beside them. *: point of attachment. X1 = CC[C@@H](C(=O)O)C1CC[C@H](C)C([C@@H](C)[C@H](O)[C@H](C)C(=O)[C@H](CC)C2O[C@]3(C=C[C@@H](NC(=O)CCS*)[C@]4(CC[C@@](C)(C5CC[C@](O)(CC)[C@H](C)O5)O4)O3)[C@H](C)C[C@@H]2C)O1; Sar = CNCC(=O)O
Legend:
SK-OV-3 [1] = test: Inhibition of tumor sphere formation in agarose-treated human SK-OV-3 cells assessed as decrease in number of formed spheres at 10 nM incubated for 9 days by imaging analysis; type: functional, cell-based; details: time 9.0 day
SK-OV-3/CDDP [2] = test: Sensitization of cisplatin-induced antiproliferative activity against human SK-OV-3/CDDP cells assessed as reduction in cell viability at 1 uM incubated for 72 hrs by CCK8 assay; type: functional, cell-based
SK-OV-3 [3] = test: Inhibition of cell invasion in human SK-OV-3 cells incubated for 24 hrs by crystal violet staining based transwell invasion assay; type: functional; details: dose 5.0 µM
A2780 [4] = test: Antitumor activity against CD44 negative human A2780 cells expressing GFP co-cultured with CD44 positive human SK-OV-3 cells in DMEM medium at 6:4 ratio assessed as decrease in fluorescence intensity incubated for 72 hrs by enzymatic immunoassay; type: functional, cell-based; details: dose 2.5-20 µM
SK-OV-3 [5] = test: Inhibition of tumor sphere formation in agarose-treated human SK-OV-3 cells assessed as fold decrease in number of formed spheres at 0.5 to 5 uM incubated for 9 days by imaging analysis; type: functional; details: dose 0.5-5 µM; time 9 day
SK-OV-3 [6] = test: Cytotoxicity against CD44 positive human SK-OV-3 cells assessed as reduction in cell viability at 100 uM preincubated with 10 and 100 uM of 4S)-4-[[(2S)-1-[(2S)-1-[(2S)-2-[[(2S)-2-[[(2S)-1-[(2S)-2-acetamido-6-amino-hexanoyl]pyrrolidine-2-carbonyl]amino]-3-hydroxy-propanoyl]amino]-3-hydroxy-propanoyl]pyrrolidine-2-carbonyl]pyrrolidine-2-carbonyl]amino]-5-[[(1S)-1-[[2-[[2-[[2-[[2-[[2-[[2-[[2-[[2-[[2-[[2-[[(1S)-2-amino-1-methyl-2-oxo-ethyl]amino]-2-oxo-ethyl]-methyl-amino]-2-oxo-ethyl]-methyl-amino]-2-oxo-ethyl]-methyl-amino]-2-oxo-ethyl]-methyl-amino]-2-oxo-ethyl]-methyl-amino]-2-oxo-ethyl]-methyl-amino]-2-oxo-ethyl]-methyl-amino]-2-oxo-ethyl]-methyl-amino]-2-oxo-ethyl]-methyl-amino]-2-oxo-ethyl]-methyl-carbamoyl]-3-carboxy-propyl]amino]-5-oxo-pentanoic acid for 1 hrs followed by compound addition and measured after 24 hrs by CCK8 assay; type: functional, cell-based
SK-OV-3/CDDP [7] = test: Induction of ROS generation in human SK-OV-3/CDDP cells at 5 uM; type: functional, cell-based
A2780 [8] = test: Binding affinity to CD44 negative human A2780 cells at 5 uM incubated for 1 hrs by flow cytometric analysis; type: functional, cell-based
A2780 [9] = test: Antitumor activity against CD44 negative human A2780 cells co-cultured with CD44 positive human SK-OV-3 cells in DMEM medium at 6:4 ratio assessed as induction of cell death incubated for 72 hrs by enzymatic immunoassay; type: functional, cell-based; details: dose 2.5-20 µM
SK-OV-3 [10] = test: Effect on CD44 expression in CD44 positive human SK-OV-3 cells; type: functional, cell-based
SK-OV-3/CDDP [11] = test: Cytotoxicity against human SK-OV-3/CDDP cells assessed as inhibition of cell proliferation incubated for 72 hrs by CCK8 assay; type: functional, cell-based
SK-OV-3 [12] = test: Inhibition of cell migration in human SK-OV-3 cells at 5 uM incubated for 24 hrs by microscope based wound healing assay; type: functional
SK-OV-3/CDDP [13] = test: Antiproliferative activity against human SK-OV-3/CDDP cells; type: functional, cell-based
A2780 [14] = test: Antitumor activity against CD44 negative human A2780 cells assessed as reduction in cell viability incubated for 72 hrs by CCK8 assay; type: functional, cell-based; details: A2780, 72 h
[15] = biological target: Vascular endothelial growth factor receptor 2 (Homo sapiens) (UniProt P35968); test: Inhibition of VEGFR2 phosphorylation in human SK-OV-3 cells at 5 uM incubated for 24 hrs by Western blot analysis; type: cell-based
[16] = Solubility of compound in water; type: physicochemical; details: buffer
A2780 [17] = test: Antitumor activity against CD44 negative human A2780 cells co-cultured with CD44 positive human SK-OV-3 cells in DMEM medium at 4:6 ratio assessed as induction of cell death incubated for 72 hrs by enzymatic immunoassay; type: functional, cell-based; details: dose 2.5-20 µM
SK-OV-3 [18] = test: Inhibition of AKT phosphorylation in human SK-OV-3 cells at 5 uM incubated for 24 hrs by Western blot analysis; type: cell-based
A2780 [19] = test: Antitumor activity against CD44 negative human A2780 cells expressing GFP co-cultured with CD44 positive human SK-OV-3 cells in DMEM medium at 4:6 ratio assessed as decrease in fluorescence intensity incubated for 72 hrs by enzymatic immunoassay; type: functional, cell-based; details: dose 2.5-20 µM
SK-OV-3/CDDP [20] = test: Reduction in intracellular GSH level in human SK-OV-3 cells at 5 uM incubated for 36 hrs; type: functional, cell-based
A2780 [21] = test: Antitumor activity against CD44 negative human A2780 cells co-cultured with CD44 positive human SK-OV-3 cells in DMEM medium at varying ratio assessed as inhibition of cell growth at 20 uM incubated for 72 hrs by enzymatic immunoassay relative to control; type: functional
A2780 [22] = test: Antitumor activity against CD44 negative human A2780 cells co-cultured with CD44 positive human SK-OV-3 cells in DMEM medium at 5:5 ratio assessed as induction of cell death incubated for 72 hrs by enzymatic immunoassay; type: functional, cell-based; details: dose 2.5-20 µM
SK-OV-3 [23] = test: Antitumor activity against human SK-OV-3 cells xenografted in nude mouse assessed as reduction in oct-4 level administered intravenously every 2 days for 21 days by hematoxylin based immunohistochemistry analysis; type: functional, cell-based; details: route iv, time 21.0 day
[24] = biological target: CD44 antigen (Homo sapiens) (UniProt P16070); test: Binding affinity to CD44 positive human SK-OV-3 cells at 5 uM incubated for 1 hrs by flow cytometric analysis; type: cell-based
SK-OV-3 [25] = test: Antiproliferative activity against human SK-OV-3 cells; type: functional, cell-based
SK-OV-3 [26] = test: Antitumor activity against human SK-OV-3 cells xenografted in nude mouse assessed as reduction in Nanog level administered intravenously every 2 days for 21 days by hematoxylin based immunohistochemistry analysis; type: functional, cell-based; details: route iv, time 21.0 day
A2780 [27] = test: Antitumor activity against CD44 negative human A2780 cells expressing GFP co-cultured with CD44 positive human SK-OV-3 cells in DMEM medium at 5:5 ratio assessed as decrease in fluorescence intensity incubated for 72 hrs by enzymatic immunoassay; type: functional, cell-based; details: dose 2.5-20 µM
SK-OV-3 [28] = test: Downregulation of CD133 expression in human SK-OV-3 tumor stem cells at 10 uM incubated for 36 hrs by flow cytometric analysis; type: functional, cell-based
SK-OV-3 [29] = test: Antitumor activity against human SK-OV-3 cells xenografted in nude mouse assessed as tumor growth inhibition at 35 microg/kg, iv administered every 2 days for 21 days; type: functional, organism-based; details: dose 35.0 µg/kg, time 21.0 day
SK-OV-3 [30] = test: Antitumor activity against CD44 positive human SK-OV-3 cells assessed as reduction in cell viability incubated for 72 hrs by CCK8 assay; type: functional, cell-based; details: SK-OV-3, 72 h
MKN-45 = test: Cytotoxicity against human MKN-45 cells assessed as inhibition of cell growth incubated for 72 hrs by CCK8 assay; type: functional, cell-based; details: MKN-45, 72 h
A-431 = test: Cytotoxicity against human A-431 cells assessed as inhibition of cell growth incubated for 72 hrs by CCK8 assay; type: functional, cell-based; details: A-431, 72 h
MCF7 = test: Cytotoxicity against human MCF7 cells assessed as inhibition of cell growth incubated for 72 hrs by CCK8 assay; type: functional, cell-based; details: MCF7, 72 h
HeLa = test: Cytotoxicity against human HeLa cells assessed as inhibition of cell growth incubated for 72 hrs by CCK8 assay; type: functional, cell-based
MIA PaCa-2 = test: Cytotoxicity against human MIA PaCa-2 cells assessed as inhibition of cell growth incubated for 72 hrs by CCK8 assay; type: functional, cell-based; details: MIA PaCa-2, 72 h
CAL-27 = test: Cytotoxicity against human CAL-27 cells assessed as inhibition of cell growth incubated for 72 hrs by CCK8 assay; type: functional, cell-based; details: CAL-27, 72 h
SK-OV-3 [31] = test: Inhibition of tumor sphere formation in agarose-treated human SK-OV-3 cells assessed as fold decrease in number of formed spheres by imaging analysis; type: functional
DU-145 = test: Cytotoxicity against human DU-145 cells assessed as inhibition of cell growth incubated for 72 hrs by CCK8 assay; type: functional, cell-based; details: DU-145, 72 h
ACHN = test: Cytotoxicity against human ACHN cells assessed as inhibition of cell growth incubated for 72 hrs by CCK8 assay; type: functional, cell-based
MDA-MB-231 = test: Cytotoxicity against human MDA-MB-231 cells assessed as inhibition of cell growth incubated for 72 hrs by CCK8 assay; type: functional, cell-based; details: MDA-MB-231, 72 h
A549 = test: Cytotoxicity against human A549 cells assessed as inhibition of cell growth incubated for 72 hrs by CCK8 assay; type: functional, cell-based; details: A549, 72 h
HCCLM3 = test: Cytotoxicity against human HCCLM3 cells assessed as inhibition of cell growth incubated for 72 hrs by CCK8 assay; type: functional, cell-based; details: HCCLM3, 72 h

Sequence of Vascular endothelial growth factor receptor 2 (Homo sapiens) (P35968 whole entry): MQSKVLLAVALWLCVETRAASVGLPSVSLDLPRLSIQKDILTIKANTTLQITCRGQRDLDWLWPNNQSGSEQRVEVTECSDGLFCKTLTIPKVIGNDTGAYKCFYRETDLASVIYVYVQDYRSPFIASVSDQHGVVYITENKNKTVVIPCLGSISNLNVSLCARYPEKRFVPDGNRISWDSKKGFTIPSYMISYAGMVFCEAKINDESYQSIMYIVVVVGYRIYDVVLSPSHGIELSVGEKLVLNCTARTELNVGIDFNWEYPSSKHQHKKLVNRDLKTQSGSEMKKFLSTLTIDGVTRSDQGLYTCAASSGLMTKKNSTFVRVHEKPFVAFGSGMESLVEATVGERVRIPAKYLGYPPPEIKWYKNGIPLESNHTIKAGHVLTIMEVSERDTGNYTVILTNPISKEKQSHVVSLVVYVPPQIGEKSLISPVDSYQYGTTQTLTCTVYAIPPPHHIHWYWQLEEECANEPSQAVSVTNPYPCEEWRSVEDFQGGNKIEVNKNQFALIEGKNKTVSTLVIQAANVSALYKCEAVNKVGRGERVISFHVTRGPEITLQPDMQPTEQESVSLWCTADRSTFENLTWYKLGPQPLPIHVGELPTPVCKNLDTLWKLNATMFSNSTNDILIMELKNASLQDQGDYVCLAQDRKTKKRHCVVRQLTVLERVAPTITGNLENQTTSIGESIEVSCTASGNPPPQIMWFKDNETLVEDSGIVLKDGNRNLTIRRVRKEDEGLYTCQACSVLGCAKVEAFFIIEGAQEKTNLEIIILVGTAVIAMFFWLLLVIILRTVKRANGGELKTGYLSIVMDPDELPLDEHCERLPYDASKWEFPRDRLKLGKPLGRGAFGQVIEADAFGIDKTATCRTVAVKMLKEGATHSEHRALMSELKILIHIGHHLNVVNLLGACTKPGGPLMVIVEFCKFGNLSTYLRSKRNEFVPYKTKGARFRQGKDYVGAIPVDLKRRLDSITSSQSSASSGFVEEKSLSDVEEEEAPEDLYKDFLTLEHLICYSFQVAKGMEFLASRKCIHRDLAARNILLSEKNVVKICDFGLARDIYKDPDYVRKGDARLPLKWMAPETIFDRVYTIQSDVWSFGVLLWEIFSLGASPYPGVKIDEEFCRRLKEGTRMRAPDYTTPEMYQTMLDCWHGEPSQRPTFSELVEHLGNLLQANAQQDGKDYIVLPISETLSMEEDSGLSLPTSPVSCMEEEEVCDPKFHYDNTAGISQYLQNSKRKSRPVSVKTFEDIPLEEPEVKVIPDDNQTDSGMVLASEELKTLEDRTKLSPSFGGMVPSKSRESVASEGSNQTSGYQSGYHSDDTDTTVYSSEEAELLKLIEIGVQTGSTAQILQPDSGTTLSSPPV
Sequence of CD44 antigen (Homo sapiens) (P16070 whole entry): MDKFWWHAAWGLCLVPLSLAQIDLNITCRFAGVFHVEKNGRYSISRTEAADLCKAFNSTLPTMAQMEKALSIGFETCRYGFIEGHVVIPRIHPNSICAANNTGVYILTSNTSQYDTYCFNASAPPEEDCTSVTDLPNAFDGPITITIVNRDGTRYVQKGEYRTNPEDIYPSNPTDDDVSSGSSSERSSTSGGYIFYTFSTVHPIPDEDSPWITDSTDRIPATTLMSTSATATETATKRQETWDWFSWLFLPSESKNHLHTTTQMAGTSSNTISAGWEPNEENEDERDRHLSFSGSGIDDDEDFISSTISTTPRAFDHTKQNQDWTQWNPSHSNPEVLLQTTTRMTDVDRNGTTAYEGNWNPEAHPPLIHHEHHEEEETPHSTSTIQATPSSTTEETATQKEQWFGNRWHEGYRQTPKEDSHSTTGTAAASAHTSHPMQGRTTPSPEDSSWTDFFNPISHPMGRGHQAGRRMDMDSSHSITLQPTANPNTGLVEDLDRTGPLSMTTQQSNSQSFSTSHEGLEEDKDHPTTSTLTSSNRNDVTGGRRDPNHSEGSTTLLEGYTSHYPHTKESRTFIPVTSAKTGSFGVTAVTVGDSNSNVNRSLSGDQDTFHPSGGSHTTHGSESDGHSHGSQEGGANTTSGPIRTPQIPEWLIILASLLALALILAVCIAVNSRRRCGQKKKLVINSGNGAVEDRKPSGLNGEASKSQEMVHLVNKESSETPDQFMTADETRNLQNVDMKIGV

Compound: CC(=O)O[C@H]1C(=O)[C@@]2(C)[C@H]([C@H](OC(=O)c3ccccc3)[C@]3(O)C[C@H](OC(=O)[C@H](O)[C@@H](NC(=O)c4ccccc4)c4ccccc4)C(C)=C1C3(C)C)[C@]1(OC(C)=O)CO[C@@H]1C[C@@H]2O
- inhibition (SK-OV-3 [1]): Active

- IC50 (SK-OV-3/CDDP [13]): 18.7 mg/L
- IC50 (A2780 [14]): 47.1 µM
- inhibition [15]: Active
- solubility [16]: Soluble
- Activity [24]: Active
- IC50 (SK-OV-3 [25]): 5.21 mg/L
- IC50 (SK-OV-3 [30]): 5.45 µM
Compound: CC[C@@H](C(=O)[O-])C1CC[C@H](C)C([C@@H](C)[C@H](O)[C@H](C)C(=O)[C@H](CC)C2O[C@]3(C=C[C@@H](NC(=O)CCSSC[C@H](NC(=O)CN(C)C(=O)CN(C)C(=O)CN(C)C(=O)CN(C)C(=O)CN(C)C(=O)CN(C)C(=O)CN(C)C(=O)CN(C)C(=O)CN(C)C(=O)CN(C)C(=O)[C@H](CCC(=O)O)NC(=O)[C@H](CCC(=O)O)NC(=O)[C@@H]4CCCN4C(=O)[C@@H]4CCCN4C(=O)[C@H](CO)NC(=O)[C@H](CO)NC(=O)[C@@H]4CCCN4C(=O)[C@H](CCCCN)NC(C)=O)C(N)=O)[C@]4(CC[C@@](C)(C5CC[C@](O)(CC)[C@H](C)O5)O4)O3)[C@H](C)C[C@@H]2C)O1.[Na+] (some centres undefined) (Ac-KPSSPPEE[Sar][Sar][Sar][Sar][Sar][Sar][Sar][Sar][Sar][Sar]C(X1)-NH2)
- Activity (SK-OV-3/CDDP [2]): Active
- inhibition (SK-OV-3 [3]): Dose-Dependent Effect
- Activity (A2780 [4]): Dose-Dependent Effect
- fold change (FC) (SK-OV-3 [5]): 4.6
- Activity (SK-OV-3 [6]): inactive
- Activity (SK-OV-3/CDDP [7]): Active
- Activity (A2780 [8]): inactive
- Activity (A2780 [9]): Dose-Dependent Effect
- Activity (SK-OV-3 [10]): inactive
- IC50 (SK-OV-3/CDDP [11]): 6.09 µM
- inhibition (SK-OV-3 [12]): Active
- Activity (A2780 [17]): Dose-Dependent Effect
- inhibition (SK-OV-3 [18]): Active
- Activity (A2780 [19]): Dose-Dependent Effect
- Activity (SK-OV-3/CDDP [20]): Active
- inhibition at 20 µM (A2780 [21]): > 80%
- Activity (A2780 [22]): Dose-Dependent Effect
- Activity (SK-OV-3 [23]): Active
- Activity (SK-OV-3 [26]): Active
- Activity (A2780 [27]): Dose-Dependent Effect
- Activity (SK-OV-3 [28]): Active
- Activity (SK-OV-3 [29]): Active

- IC50 (A2780 [14]): 0.11 µM
- inhibition [15]: Active
- IC50 (SK-OV-3 [30]): 4.39 µM
Compound: CC[C@@H](C(=O)[O-])C1CC[C@H](C)C([C@@H](C)[C@H](O)[C@H](C)C(=O)[C@H](CC)C2O[C@]3(C=C[C@@H](NC(=O)CCSSc4ccccc4)[C@]4(CC[C@@](C)(C5CC[C@](O)(CC)[C@H](C)O5)O4)O3)[C@H](C)C[C@@H]2C)O1.[Na+] (some centres undefined)
- IC50 (MKN-45): 1.47 µM
- inhibition (SK-OV-3 [3]): Dose-Dependent Effect
- IC50 (A-431): 2.95 µM
- IC50 (MCF7): 8.23 µM
- IC50 (HeLa): 3.76 µM
- IC50 (MIA PaCa-2): 1.14 µM
- IC50 (CAL-27): 3.73 µM
- IC50 (SK-OV-3/CDDP [11]): 4.45 µM
- inhibition (SK-OV-3 [12]): Active
- fold change (FC) (SK-OV-3 [31]): 4.6
- IC50 (DU-145): 30.9 µM
- inhibition (SK-OV-3 [18]): Active
- IC50 (ACHN): 7.37 µM
- IC50 (MDA-MB-231): 0.98 µM
- IC50 (A549): 14.4 µM
- IC50 (HCCLM3): 1.33 µM

Source: ChEMBL document CHEMBL5614385, “A peptide-salinomycin conjugate with a bystander effect reduces the stemness characteristics of ovarian cancer cells and enhances drug sensitivity” (Eur J Med Chem, 2024)
